Experimental data taken from patent US12054466B2, “Compounds for the treatment of clostridium difficile infection” (University of Notre Dame du Lac, priority 2016, dated 2024).
≈ marks a conversion by molar mass, not a printed value. Entries after “also recorded” stand apart in the source; their conditions may differ. Read-outs that look alike come from different tables or passages of the source.

Columns and labels:
Bacteroides fragilis = experiment: MIC against common gut bacteria; format: cell-based
C. difficile BAA-1801 = experiment: MIC, broth microdilution; format: cell-based; settings: Clostridioides difficile
C. difficile [1] = experiment: MIC against C. difficile (strain not named; 14 strains overall); format: cell-based, Clostridium difficile
Bacteroides eggerthii = experiment: MIC against common gut bacteria; format: cell-based
C. difficile NR49294 = experiment: MIC, broth microdilution; format: cell-based; settings: Clostridioides difficile
C. difficile NR49292 = experiment: MIC, broth microdilution; format: cell-based; settings: Clostridioides difficile
Bacteroides ovatus = experiment: MIC against common gut bacteria; format: cell-based
C. difficile NR49318 = experiment: MIC, broth microdilution; format: cell-based; settings: Clostridioides difficile
[2] = system: Corynebacterium sp. HM-784; experiment: MIC against common gut bacteria; format: cell-based; settings: Corynebacterium, SP.HM784
Experimental: Minimally-inhibitory concentrations. MICs for C. difficile strains and the common gut bacteria were determined using broth microdilution techniques as reported earlier using brucella broth supplemented with hemin and vitamin K or supplemented BHIS broth (Babakhani et al., J Antimicrob Chemother 2013, 68(3), 515). Lactobacillus MRS broth was used for lactobacillus strains. […] All incubations unless specified otherwise were carried out at 24 or 48 h at 37° C. in an anaerobic chamber (Whitley DG250 workstation, Microbiology International, Frederick, MD). Corynebacterium and lactobacillus species were incubated aerobically.

[3] = system: Bifidobacterium longum HM-846; experiment: MIC against common gut bacteria; format: cell-based; settings: Bifidobacterium longum, HM846
Bacteroides caccae = experiment: MIC against common gut bacteria; format: cell-based
[4] = system: C. difficile strain ATCC 43255; experiment: Mouse model of recurrent CDI, second study: fecal cell, spore and toxin evaluation; format: in vivo, mice
Experimental: C. difficile Mouse Model. […] A negative vehicle control will be included. […] This study was conducted in duplicates.
A second study was conducted with oxadiazole 2 given po at 20 or 40 mg/kg for 5 days and vancomycin administered at 50 mg/kg po for 5 days. Fecal samples were collected on days 3, 7, and 10 for C. difficile spore and toxin evaluation.

C. difficile BAA-1814 = experiment: MIC, broth microdilution; format: cell-based; settings: Clostridioides difficile
Bacteroides vulgatus = experiment: MIC against common gut bacteria; format: cell-based; settings: Phocaeicola vulgatus
Veillonella sp. HM-49 = experiment: MIC against common gut bacteria; format: cell-based; settings: Veillonella, SP.HM49
C. difficile BAA-1804 = experiment: MIC, broth microdilution; format: cell-based; settings: Clostridioides difficile
[5] = system: Lactobacillus gasseri HM-644; experiment: MIC against common gut bacteria; format: cell-based; settings: Lactobacillus gasseri, HM644
C. difficile [6] = settings: cited from earlier work
[7] = system: Lactobacillus reuteri HM-102; experiment: MIC against common gut bacteria; format: cell-based; settings: Limosilactobacillus reuteri, HM102
C. difficile BAA-1803 = experiment: MIC, broth microdilution; format: cell-based; settings: Clostridioides difficile
C. difficile ATCC43598 = experiment: MIC, broth microdilution; format: cell-based; settings: Clostridioides difficile
C. difficile BAA-1812 = experiment: MIC, broth microdilution; format: cell-based; settings: Clostridioides difficile
[8] = system: Fusobacterium nucleatum HM-992; experiment: MIC against common gut bacteria; format: cell-based; settings: Fusobacterium nucleatum, HM992
[9] = system: Bacteroides fragilis HM-709; experiment: MIC against common gut bacteria; format: cell-based; settings: Bacteroides fragilis, HM709
C. difficile ATCC43255 = experiment: MIC, broth microdilution; format: cell-based; settings: Clostridioides difficile
C. difficile infection = settings: patients treated for CDI; cited from earlier work
[10] = system: C. difficile strain ATCC 43255; experiment: Mouse model of recurrent CDI, survival; settings: po once a day for 5 days; oxadiazole 2 20 mg/kg/day, vancomycin 50 mg/kg/day

## CN[C@H](CC(C)C)C(=O)N[C@H]1C(=O)N[C@@H](CC(N)=O)C(=O)N[C@H]2C(=O)N[C@H]3C(=O)N[C@H](C(=O)N[C@H](C(=O)O)c4cc(O)cc(O)c4-c4cc3ccc4O)[C@H](O)c3ccc(c(Cl)c3)Oc3cc2cc(c3O[C@@H]2O[C@H](CO)[C@@H](O)[C@H](O)[C@H]2O[C@H]2C[C@](C)(N)[C@H](O)[C@H](C)O2)Oc2ccc(cc2Cl)[C@H]1O [vancomycin]
Bacteroides fragilis
  MIC: 16 µg/mL (≈ 11 µM)
C. difficile BAA-1801; BAA1801, 24 h, read-out: MIC at 24 h
  MIC: 0.25 µg/mL (≈ 0.173 µM)
C. difficile BAA-1801; BAA1801, 48 h, read-out: MIC at 48 h
  MIC: 0.25 µg/mL (≈ 0.173 µM)
C. difficile [1]
  MIC range in 14 C. difficile strains: 0.25 to 1 µg/mL
Bacteroides eggerthii
  MIC: 8 µg/mL (≈ 5.52 µM)
C. difficile NR49294; NR49294, 24 h, read-out: MIC at 24 h
  MIC: 0.25 µg/mL (≈ 0.173 µM)
C. difficile NR49294; NR49294, 48 h, read-out: MIC at 48 h
  MIC: 0.25 µg/mL (≈ 0.173 µM)
C. difficile NR49292; NR49292, 24 h, read-out: MIC at 24 h
  MIC: 0.25 µg/mL (≈ 0.173 µM)
C. difficile NR49292; NR49292, 48 h, read-out: MIC at 48 h
  MIC: 0.25 µg/mL (≈ 0.173 µM)
Bacteroides ovatus
  MIC: 16 µg/mL (≈ 11 µM)
C. difficile NR49318; NR49318, 24 h, read-out: MIC at 24 h
  MIC: 0.25 µg/mL (≈ 0.173 µM)
C. difficile NR49318; NR49318, 48 h, read-out: MIC at 48 h
  MIC: 0.25 µg/mL (≈ 0.173 µM)
[2]
  MIC: 0.25 µg/mL (≈ 0.173 µM)
[3]
  MIC: 0.25 µg/mL (≈ 0.173 µM)
Bacteroides caccae
  MIC: 32 µg/mL (≈ 22.1 µM)
[4]; 50 mg/kg vancomycin, in words
  Spores in feces: spores were observed on day 10; also recorded: no spores were observed until day 10
[4]; dose of compound 2 not stated
  Reduction in vegetative cells in feces by day 10: 2 log
[4]; vancomycin 50 mg/kg po for 5 days
  Total cell counts in feces, reduction on day 10 compared to day 3: 1.02 log
[4]; vancomycin group, day 10, in words
  Toxin in feces: toxin was observed
C. difficile BAA-1814; BAA1814, 24 h, read-out: MIC at 24 h
  MIC: 0.5 µg/mL (≈ 0.345 µM)
C. difficile BAA-1814; BAA1814, 48 h, read-out: MIC at 48 h
  MIC: 0.5 µg/mL (≈ 0.345 µM)
Bacteroides vulgatus
  MIC: 16 µg/mL (≈ 11 µM)
Veillonella sp. HM-49
  MIC: > 32 µg/mL
C. difficile BAA-1804; BAA1804, 24 h, read-out: MIC at 24 h
  MIC: 1 µg/mL (≈ 0.69 µM)
C. difficile BAA-1804; BAA1804, 48 h, read-out: MIC at 48 h
  MIC: 1 µg/mL (≈ 0.69 µM)
[5]
  MIC: 1 µg/mL (≈ 0.69 µM)
C. difficile [6]; at 8× or 80× MIC
  Activity against C. difficile spores: not active
C. difficile [6]; at 8×MIC
  Inhibition of toxin production: Neither vancomycin nor metronidazole inhibit toxin production
[7]
  MIC: > 32 µg/mL
C. difficile BAA-1803; BAA1803, 24 h, read-out: MIC at 24 h
  MIC: 1 µg/mL (≈ 0.69 µM)
C. difficile BAA-1803; BAA1803, 48 h, read-out: MIC at 48 h
  MIC: 2 µg/mL (≈ 1.38 µM)
C. difficile ATCC43598; ATCC43598, 24 h, read-out: MIC at 24 h
  MIC: 1 µg/mL (≈ 0.69 µM)
C. difficile ATCC43598; ATCC43598, 48 h, read-out: MIC at 48 h
  MIC: 1 µg/mL (≈ 0.69 µM)
C. difficile BAA-1812; BAA1812, 24 h, read-out: MIC at 24 h
  MIC: 0.25 µg/mL (≈ 0.173 µM)
C. difficile BAA-1812; BAA1812, 48 h, read-out: MIC at 48 h
  MIC: 0.5 µg/mL (≈ 0.345 µM)
[8]
  MIC: 0.25 µg/mL (≈ 0.173 µM)
[9]
  MIC: 16 µg/mL (≈ 11 µM)
C. difficile ATCC43255; ATCC43255, 24 h, read-out: MIC at 24 h
  MIC: 0.5 µg/mL (≈ 0.345 µM)
C. difficile ATCC43255; ATCC43255, 48 h, read-out: MIC at 48 h
  MIC: 0.5 µg/mL (≈ 0.345 µM)
C. difficile infection
  Patients with recurrence of the infection: About 25%
[10]
  Survival after 25 days: 45%
